In patent publication US20240294499A1, “TARGETED PROTEIN DEGRADATION USING BIFUNCTIONAL COMPOUNDS THAT BIND UBIQUITIN LIGASE AND TARGET MCL-1 PROTEIN” (Captor Therapeutics S.A., priority 2021, published 2024):

Columns and labels:
[1] = molecular target: T1, [MCL-1]-[compound of formula (I)]-[CRBN/DDB1] complex (Homo sapiens, UniProt Q07820+Q96SW2); assay: HTRF ternary complex assay; type: binding; settings: ternary complex formation; read-out: HTRF ternary complex Average pEC50 by molecule (converted)
Outline: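 hMcl-1 and CRBN (mix at 48 nM and 105.6 nM) with Streptavidin-Eu cryptate and anti-6×His-d2 in PPI Europium buffer with 2 mM DTT; compounds in dose-response, 0.5% DMSO. Incubated 180 min at 25° C, TR-FRET 665/620 read. Bell-shaped curve fitted by Gaussian; EC50 reported.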

[2] = tested on: MV-4-11 cells; assay: Cell viability assay (CellTiter-Glo), MV-4-11; type: cell-based; settings: Homo sapiens, MV4-11, 24 hours incubation, 1% FBS, read-out: Average pIC50 by molecule MV-4-11 (converted)
Outline: (§1)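 Luminescent ATP readout (CellTiter-Glo) at 24 hours measured viability, expressed relative to DMSO-treated wells. Compound was added directly to the medium as a 9–12-point threefold series starting at 30 uM, at 0.5% final DMSO. The medium contained FBS reduced to 1%.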

[3] = tested on: DMS 114 cells; assay: Cell viability assay (CellTiter-Glo), DMS 114; type: cell-based; settings: Homo sapiens, DMS-114, 72 h, 72 hours incubation, 10% FBS, read-out: Average pIC50 by molecule DMS 114 (converted)
Text: The effect of various compounds of the invention on the viability of DMS 114 cell line was investigated, using the CTG protocol described below.
DMS 114 cell line is derived from small-cell lung cancer, which is described in the literature as MCL-1 dependent lines [Yasuda Y et al. Cell Death & Disease 2020; 11: 177].
DMS 114 cells were detached with trypsin and then resuspended in growth medium containing 10% FBS and counted. Cell suspension was then adjusted to 5×10^4 cells/ml using growth medium containing 10% FBS. Afterwards, […] were seeded on 384-well plates (50 μl). Plates were then placed in the incubator overnight until treated. Next day, compounds were added using ECHO 555 liquid handler. Compound concentrations used in this assay: 1/3 dilutions starting at 30 uM (9 to 12 points).
After 72 hours of incubation, cell viability was evaluated using CellTiter-Glo Luminescent Cell Viability Assay (Promega, cat #G7572). Luminescence signal was measured using a CLARIOstar Plus Multi-Mode Microplate Reader (574-590 nm).

[4] = tested on: ARH-77 cells; assay: Cell viability assay (CellTiter-Glo), ARH-77; type: cell-based; settings: Homo sapiens, ARH-77, 24 hours incubation, 1% FBS, read-out: Average pIC50 by molecule ARH-77 (converted)
Outline: as §1

[5] = molecular target: T1, [MCL-1]-[compound of formula (I)]-[CRBN/DDB1] complex; assay: AlphaLISA dose response ternary complex formation assay; type: binding; settings: read-out: AlphaLISA dose response Average pEC50 by molecule (converted)
Outline: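 EC50 comes from dose–response of AlphaLISA luminescence (excitation 680, emission 615 nm), normalised between DMSO background and an internal positive control, with concentrations past the hook point dropped. Ternary complex formed by mixing bead-bound biotin-hMCL-1 and His-CRBN/DDB1 (protein solutions 40 and 200 nM) with compound in 2% DMSO, 30 min, 25 °C.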

[6] = tested on: OPM-2 cells; assay: Cell viability assay (CellTiter-Glo), OPM-2; type: cell-based; settings: Homo sapiens, 24 hours incubation, 1% FBS, read-out: Average pIC50 by molecule OPM-2 (converted)
Text: The effect of various compounds of the invention on the viability of OPM-2, MV-4-11 and ARH-77 cell lines was investigated, using the CTG protocol described below.
OPM-2 and MV-4-11 cell lines are derived from multiple myeloma and acute myeloid leukaemia, respectively. Both cell lines are described in the literature as MCL-1 dependent lines, as opposed to lymphoblast-like ARH-77 cell line, which is described as independent of MCL-1 (Tron A E et al. Nat Commun. 2018; 9: 5341; Caenepeel S et al. Cancer Discov. 2018 December; 8(12):1582-1597).
Cells (OPM-2, MV-4-11 or ARH-77) were seeded on […] in a growth medium with FBS reduced to 1%. Next, compound stocks were pre-diluted in DMSO and added directly to the cells growth medium (final DMSO concentration: 0.5%). Compound concentrations used in this assay: 1/3 dilutions starting at 30 uM (9 to 12 points).
After 24 hours of incubation, cell viability was evaluated using CellTiter-Glo Luminescent Cell Viability Assay (Promega, cat #G7572). Luminescence signal was measured using a CLARIOstar Plus Multi-Mode Microplate Reader (574-590 nm).
Results were normalized to DMSO control.

T1 sequence (Q07820 whole entry): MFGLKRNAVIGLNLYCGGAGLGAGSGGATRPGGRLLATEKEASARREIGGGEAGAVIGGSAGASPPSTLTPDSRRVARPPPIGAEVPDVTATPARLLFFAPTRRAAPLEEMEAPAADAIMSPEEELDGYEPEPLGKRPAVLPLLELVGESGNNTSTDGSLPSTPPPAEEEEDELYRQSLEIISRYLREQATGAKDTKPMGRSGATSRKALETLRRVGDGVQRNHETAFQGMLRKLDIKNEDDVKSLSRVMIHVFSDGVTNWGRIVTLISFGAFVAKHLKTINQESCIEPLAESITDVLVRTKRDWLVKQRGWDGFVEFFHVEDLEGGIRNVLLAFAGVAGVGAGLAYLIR
T1 sequence (Q96SW2 whole entry): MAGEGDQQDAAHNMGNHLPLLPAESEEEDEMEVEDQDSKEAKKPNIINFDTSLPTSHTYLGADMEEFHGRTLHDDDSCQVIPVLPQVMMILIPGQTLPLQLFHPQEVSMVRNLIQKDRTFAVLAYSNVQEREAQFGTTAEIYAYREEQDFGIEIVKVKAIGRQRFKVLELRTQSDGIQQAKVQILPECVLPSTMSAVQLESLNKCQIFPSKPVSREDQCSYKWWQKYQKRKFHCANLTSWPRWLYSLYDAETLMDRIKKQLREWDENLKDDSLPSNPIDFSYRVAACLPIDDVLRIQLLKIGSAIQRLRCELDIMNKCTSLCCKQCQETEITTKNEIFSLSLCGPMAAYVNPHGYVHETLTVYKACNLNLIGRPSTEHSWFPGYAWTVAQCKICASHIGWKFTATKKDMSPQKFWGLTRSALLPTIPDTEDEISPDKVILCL
T1 sequence (Q16531 whole entry partner): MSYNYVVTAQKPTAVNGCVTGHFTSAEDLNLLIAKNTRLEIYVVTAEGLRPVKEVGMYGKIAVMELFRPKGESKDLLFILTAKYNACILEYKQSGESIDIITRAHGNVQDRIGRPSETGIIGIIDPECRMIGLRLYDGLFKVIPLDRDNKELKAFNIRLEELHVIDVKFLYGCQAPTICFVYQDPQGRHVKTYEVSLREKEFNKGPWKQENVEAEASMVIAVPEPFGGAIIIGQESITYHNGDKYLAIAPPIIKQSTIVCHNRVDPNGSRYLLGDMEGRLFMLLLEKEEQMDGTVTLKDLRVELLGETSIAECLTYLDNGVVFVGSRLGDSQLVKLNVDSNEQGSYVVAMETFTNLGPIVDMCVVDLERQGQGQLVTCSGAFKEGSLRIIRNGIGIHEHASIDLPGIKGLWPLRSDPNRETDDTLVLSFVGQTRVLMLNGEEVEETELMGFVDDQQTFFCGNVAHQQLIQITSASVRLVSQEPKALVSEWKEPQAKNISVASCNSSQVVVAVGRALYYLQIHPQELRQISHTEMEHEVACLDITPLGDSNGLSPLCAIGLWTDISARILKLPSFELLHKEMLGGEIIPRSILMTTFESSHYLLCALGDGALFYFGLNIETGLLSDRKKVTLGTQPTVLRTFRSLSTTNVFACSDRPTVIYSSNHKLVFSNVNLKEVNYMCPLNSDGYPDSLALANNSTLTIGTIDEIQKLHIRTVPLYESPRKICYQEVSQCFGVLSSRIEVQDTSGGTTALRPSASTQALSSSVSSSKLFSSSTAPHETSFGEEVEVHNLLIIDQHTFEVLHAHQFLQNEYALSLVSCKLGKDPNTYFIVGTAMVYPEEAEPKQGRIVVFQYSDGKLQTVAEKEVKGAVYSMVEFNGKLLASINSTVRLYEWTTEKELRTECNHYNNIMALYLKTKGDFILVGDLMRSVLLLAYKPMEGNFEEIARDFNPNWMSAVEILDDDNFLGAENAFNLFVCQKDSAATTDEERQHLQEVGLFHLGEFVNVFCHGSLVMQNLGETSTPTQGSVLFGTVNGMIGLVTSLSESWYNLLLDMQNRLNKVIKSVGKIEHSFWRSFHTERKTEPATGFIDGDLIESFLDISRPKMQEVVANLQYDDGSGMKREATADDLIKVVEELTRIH

Structure (SMILES)	EC50 [1]	IC50 [2]	EC50 [5]	IC50 [3]	IC50 [4]	IC50 [6]
Cc1nn(C)c(C)c1-c1c(Cl)ccc2c(CCCOc3cccc4cc(F)ccc34)c(C(=O)O)n(CCN3CCN(C4CCN(c5cc6c(cc5F)C(=O)N(C5CCC(=O)NC5=O)C6=O)CC4)CC3)c12 (stereo not shown) [Compound 338, 6-Chloro-1-[2-(4-{1-[2-(2,6-dioxopiperidin-3-yl)-6-fluoro-1,3-dioxo-2,3-dihydro-1H-isoindol-5-yl]piperidin-4-yl}piperazin-1-yl)ethyl]-3-{3-[(6-fluoronaphthalen-1-yl)oxy]propyl}-7-(1,3,5-trimethyl-1H-pyrazol-4-yl)-1H-indole-2-carboxylic acid]	< 10 nM	≤ 31.6 nM	–	≤ 10000 nM	> 10000 nM	–
Cc1nn(C)c(C)c1-c1c(Cl)ccc2c(CCCOc3cccc4c3CCCC4)c(C(=O)O)n(CCN3CCN(C(=O)COc4cccc5c4C(=O)N(C4CCC(=O)NC4=O)C5=O)CC3)c12 (stereo not shown) [Compound 216, 6-chloro-1-{2-[4-(2-{[2-(2,6-dioxopiperidin-3-yl)-1,3-dioxo-2,3-dihydro-1H-isoindol-4-yl]oxy}acetyl)piperazin-1-yl]ethyl}-3-[3-(5,6,7,8-tetrahydronaphthalen-1-yloxy)propyl]-7-(1,3,5-trimethyl-1H-pyrazol-4-yl)-1H-indole-2-carboxylic acid]	< 10 nM	≤ 100 nM	< 10 nM	≤ 3160 nM	> 10000 nM	≤ 100 nM
COc1cc(C(=O)NC2CCC(=O)NC2=O)c2nc(C)n(CC(=O)N3CCN(CCn4c(C(=O)O)c(CCCOc5cccc6cc(F)ccc56)c5ccc(Cl)c(-c6c(C)nn(C)c6C)c54)CC3)c2c1 (stereo not shown) [Compound 277, 6-Chloro-1-{2-[4-(2-{4-[(2,6-dioxopiperidin-3-yl)carbamoyl]-6-methoxy-2-methyl-1H-1,3-benzodiazol-1-yl}acetyl)piperazin-1-yl]ethyl}-3-{3-[(6-fluoronaphthalen-1-yl)oxy]propyl}-7-(1,3,5-trimethyl-1H-pyrazol-4-yl)-1H-indole-2-carboxylic acid]	–	≤ 100 nM	< 100 nM	≤ 3160 nM	> 10000 nM	–
Cc1nn(C)c(C)c1-c1c(Cl)ccc2c(CCCOc3cccc4cc(F)ccc34)c(C(=O)O)n(CCN3CCN(C(=O)COc4c(F)ccc5c4CN(C4CCC(=O)NC4=O)C5=O)CC3)c12 (stereo not shown) [Compound 342, 6-Chloro-1-(2-(4-(2-((2-(2,6-dioxopiperidin-3-yl)-5-fluoro-1-oxoisoindolin-4-yl)oxy)acetyl)piperazin-1-yl)ethyl)-3-(3-((6-fluoronaphthalen-1-yl)oxy)propyl)-7-(1,3,5-trimethyl-1H-pyrazol-4-yl)-1H-indole-2-carboxylic acid]	–	≤ 31.6 nM	< 100 nM	≤ 1000 nM	> 10000 nM	–

Second part, led by results:

EC50 [1]	IC50 [2]	EC50 [5]	Structure (SMILES)	IC50 [3]	IC50 [4]	IC50 [6]
–	≤ 316 nM	< 100 nM	Cc1nn(C)c(C)c1-c1c(Cl)ccc2c(CCCOc3cccc4ccccc34)c(C(=O)O)n(CCN3CCN(C(=O)CNc4cccc5c4C(=O)N(C4CCC(=O)NC4=O)C5=O)CC3)c12 (stereo not shown) [Compound 207, 6-chloro-1-{2-[4-(2-{[2-(2,6-dioxopiperidin-3-yl)-1,3-dioxo-2,3-dihydro-1H-isoindol-4-yl]amino}acetyl)piperazin-1-yl]ethyl}-3-[3-(naphthalen-1-yloxy)propyl]-7-(1,3,5-trimethyl-1H-pyrazol-4-yl)-1H-indole-2-carboxylic acid]	–	> 10000 nM	≤ 1000 nM
< 100 nM	≤ 31.6 nM	–	COCc1c(-c2c(Cl)ccc3c(CCCOc4cccc5cc(F)ccc45)c(C(=O)O)n(CCN4CCN(C(=O)COc5cccc6c5CN(C5CCC(=O)NC5=O)C6=O)CC4)c23)c(C)nn1C (stereo not shown) [Compound 349, 6-Chloro-1-(2-(4-(2-((2-(2,6-dioxopiperidin-3-yl)-1-oxoisoindolin-4-yl)oxy)acetyl)piperazin-1-yl)ethyl)-3-(3-((6-fluoronaphthalen-1-yl)oxy)propyl)-7-(5-(methoxymethyl)-1,3-dimethyl-1H-pyrazol-4-yl)-1H-indole-2-carboxylic acid]	≤ 1000 nM	> 10000 nM	–
–	≤ 316 nM	< 100 nM	Cc1nn(C)c(C)c1-c1c(Cl)ccc2c(CCCOc3cccc4ccccc34)c(C(=O)O)n(CCN3C[C@@H]4CN(C(=O)COc5cccc6c5C(=O)N(C5CCC(=O)NC5=O)C6=O)C[C@@H]4C3)c12 (stereo partly drawn) [Compound 211, 6-chloro-1-(2-((3aR,6aS)-5-(2-((2-(2,6-dioxopiperidin-3-yl)-1,3-dioxoisoindolin-4-yl)oxy)acetyl)hexahydropyrrolo[3,4-c]pyrrol-2(1H)-yl)ethyl)-3-(3-(naphthalen-1-yloxy)propyl)-7-(1,3,5-trimethyl-1H-pyrazol-4-yl)-1H-indole-2-carboxylic acid]	–	> 10000 nM	≤ 3160 nM
–	≤ 100 nM	< 100 nM	Cc1nn(C)c(C)c1-c1c(Cl)ccc2c(CCCOc3cccc4ccccc34)c(C(=O)O)n(CCN3CCN(C(=O)COc4cccc5c4C(=O)N(C4CCC(=O)NC4=O)C5=O)CC34CC4)c12 (stereo not shown) [Compound 210, 6-chloro-1-(2-(7-(2-((2-(2,6-dioxopiperidin-3-yl)-1,3-dioxoisoindolin-4-yl)oxy)acetyl)-4,7-diazaspiro[2.5]octan-4-yl)ethyl)-3-(3-(naphthalen-1-yloxy)propyl)-7-(1,3,5-trimethyl-1H-pyrazol-4-yl)-1H-indole-2-carboxylic acid]	–	> 10000 nM	≤ 1000 nM
–	≤ 100 nM	< 10 nM	Cc1nn(C)c(C)c1-c1c(Cl)ccc2c(CCCOc3cccc4cc(F)ccc34)c(C(=O)O)n(CC[N+]3([O-])CCN(C(=O)COc4cccc5c4CN(C4CCC(=O)NC4=O)C5=O)CC3)c12 (stereo not shown) [Compound 298, 1-(2-(2-Carboxy-6-chloro-3-(3-((6-fluoronaphthalen-1-yl)oxy)propyl)-7-(1,3,5-trimethyl-1H-pyrazol-4-yl)-1H-indol-1-yl)ethyl)-4-(2-((2-(2,6-dioxopiperidin-3-yl)-1-oxoisoindolin-4-yl)oxy)acetyl)piperazine 1-oxide]	≤ 1000 nM	> 10000 nM	–
< 10 nM	≤ 100 nM	< 100 nM	Cc1nn(C)c(C)c1-c1c(Cl)ccc2c(CCCOc3cccc4cc(F)ccc34)c(C(=O)O)n(CCN3CCN(C(=O)Cn4c(C)nc5c(C(=O)NC6CCC(=O)NC6=O)ccc(Br)c54)CC3)c12 (stereo not shown) [Compound 269, 1-(2-(4-(2-(7-Bromo-4-((2,6-dioxopiperidin-3-yl)carbamoyl)-2-methyl-1H-benzo[d]imidazol-1-yl)acetyl)piperazin-1-yl)ethyl)-6-chloro-3-(3-((6-fluoronaphthalen-1-yl)oxy)propyl)-7-(1,3,5-trimethyl-1H-pyrazol-4-yl)-1H-indole-2-carboxylic acid]	≤ 3160 nM	> 10000 nM	–
